The NIST ThermoML archive (doi:10.1021/acs.jced.5b00367)

Assay: wn = mass fraction of the nth substance listed
Conditions: 101 kPa, Liquid, Alternating current cell with electrodes, w1 = 0.01

CCCCCCCCCCCC[N+](CC)(CC)CCCCCCCCCCCC.[Br-] [didodecyldiethylammonium bromide] + O
Conditions	electrical conductivity [S/m]
291.85 K	0.00363
291.95 K	0.00362
292.05 K	0.00364
292.15 K	0.00366
292.25 K	0.00366
292.35 K	0.00367
292.45 K	0.00362
292.55 K	0.00374
292.65 K	0.00369
292.75 K	0.00367
292.85 K	0.00372
292.95 K	0.00369
293.05 K	0.00378
293.15 K	0.00377
293.25 K	0.00376
293.35 K	0.00376
293.45 K	0.0037
293.55 K	0.00375
293.65 K	0.00376
293.75 K	0.00372
293.85 K	0.00383
293.95 K	0.00378
294.05 K	0.0038
294.15 K	0.00381
294.25 K	0.0038
294.35 K	0.00381
294.45 K	0.00383
294.55 K	0.00382
294.65 K	0.00384
294.75 K	0.00385
294.85 K	0.00386
294.95 K	0.00387
295.05 K	0.00389
295.15 K	0.00389
295.25 K	0.00386
295.35 K	0.00396
295.45 K	0.00395
295.55 K	0.00387
295.65 K	0.00396
296.45 K	0.00389
296.55 K	0.00397
296.75 K	0.00394
297.45 K	0.00396
297.85 K	0.00401
298.15 K	0.00402
298.55 K	0.00399
298.75 K	0.00405
298.95 K	0.00402
299.15 K	0.00407
299.55 K	0.00409
299.75 K	0.00406
300.05 K	0.00407
300.45 K	0.00419
300.75 K	0.00428
300.95 K	0.00431
301.55 K	0.00453
301.85 K	0.00472
302.15 K	0.0048
302.35 K	0.005
302.75 K	0.00518
303.05 K	0.00543
303.45 K	0.00568
303.75 K	0.00609
304.55 K	0.00686
304.85 K	0.00713
305.15 K	0.00765
305.55 K	0.00812
305.85 K	0.00833
306.05 K	0.00891
306.35 K	0.00946
307.35 K	0.0136
307.55 K	0.0157
307.95 K	0.016
308.25 K	0.0159
308.35 K	0.016
308.75 K	0.0162
308.95 K	0.0165
309.25 K	0.0167
309.75 K	0.0169
310.05 K	0.0171
310.15 K	0.0172
310.45 K	0.0175
310.65 K	0.0177
310.85 K	0.0179
311.05 K	0.018
311.25 K	0.0181
311.45 K	0.0183
311.65 K	0.0184
311.75 K	0.0185
311.85 K	0.0187
311.95 K	0.0188
312.15 K	0.0189
312.35 K	0.0192
312.55 K	0.0194
312.65 K	0.0194
312.85 K	0.0196
312.95 K	0.0196
313.35 K	0.0201
313.65 K	0.0204
313.85 K	0.0205
313.95 K	0.0207
314.05 K	0.0208
314.15 K	0.0209
314.35 K	0.021
314.45 K	0.0212
314.65 K	0.0213
314.75 K	0.0214
314.85 K	0.0216
314.95 K	0.0217
315.05 K	0.0218
315.15 K	0.0219
315.25 K	0.022
315.35 K	0.0222
